The source of these data is patent US20080070971A1, “Medical Use of Bilirubin and its Structural Analogues” (priority 2006, published 2008).

Read-outs that look alike come from different tables or passages of the source.

One may read the IC50 as the midpoint of a concentration-inhibition curve.

In one test the target is T1, HMG-CoA reductase (Homo sapiens, UniProt P04035).
T1 construct: from tissue; host or cells: liver microsomes
T1 sequence (P04035 1-888): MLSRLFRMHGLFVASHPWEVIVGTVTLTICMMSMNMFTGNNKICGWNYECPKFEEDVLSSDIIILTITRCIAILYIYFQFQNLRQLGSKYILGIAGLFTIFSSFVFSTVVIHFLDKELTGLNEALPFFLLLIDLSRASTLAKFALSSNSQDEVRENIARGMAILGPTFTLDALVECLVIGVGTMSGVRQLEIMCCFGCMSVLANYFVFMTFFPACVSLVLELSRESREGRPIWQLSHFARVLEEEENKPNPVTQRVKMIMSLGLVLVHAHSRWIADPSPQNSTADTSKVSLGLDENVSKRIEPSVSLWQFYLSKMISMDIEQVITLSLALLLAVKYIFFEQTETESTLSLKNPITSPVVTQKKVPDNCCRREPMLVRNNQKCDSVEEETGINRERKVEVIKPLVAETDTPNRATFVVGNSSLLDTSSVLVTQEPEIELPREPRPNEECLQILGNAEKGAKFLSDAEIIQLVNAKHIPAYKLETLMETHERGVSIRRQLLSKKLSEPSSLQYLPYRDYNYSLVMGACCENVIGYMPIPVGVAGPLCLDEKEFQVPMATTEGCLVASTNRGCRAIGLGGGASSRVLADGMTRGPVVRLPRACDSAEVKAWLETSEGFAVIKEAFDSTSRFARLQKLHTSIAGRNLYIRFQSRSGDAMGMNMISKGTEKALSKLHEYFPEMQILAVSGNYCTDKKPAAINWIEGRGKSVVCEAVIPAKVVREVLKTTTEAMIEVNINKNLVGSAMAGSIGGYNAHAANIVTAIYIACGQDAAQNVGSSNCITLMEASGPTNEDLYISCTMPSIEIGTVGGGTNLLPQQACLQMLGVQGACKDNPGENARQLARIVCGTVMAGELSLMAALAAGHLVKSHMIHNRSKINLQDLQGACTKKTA
As to the kind of experiment: HMG-CoA reductase assay in liver microsomes. It counts as biochemical. As to conditions: moderately high concentrations; 30 mg/L (FIG. 6). On the procedure:
Liver microsomes, which are used to investigate cholesterol metabolism, were prepared as follows. Liver was homogenized in 50 mM Tris HCl buffer (pH 7.4), containing 0.3 M sucrose, 10 mM DTT, and 10 mM EDTA. The homogenate was centrifuged at 20,000×g for 15 min, and the supernatant was centrifuged at 100,000×g for 60 min. The resulting microsomal fraction was suspended in 3 ml of 0.1 M potassium phosphate buffer (pH 7.4), containing 1 mM EDTA and 5 mM DTT. Aliquots were immediately frozen in liquid nitrogen and stored at −20° C. until analysis.
Assay of HMG-CoA reductase. Microsomal suspensions of […], containing 5 mg protein, were preincubated for 5 min at 37° C. with […] of 0.1 M potassium phosphate buffer (pH 7.4), containing 1 mM EDTA and 12 mM glucose-6-phosphate. The assay was initiated by adding […] of cofactor-substrate solution (0.1 mM HMG-CoA, 3 mM MADPH, and 2 U/ml glucose-6-phosphate dehydrogenase). The incubation was performed at 37+ C. for 30 min and was terminated by the addition of […] of 1 M MaOH. After lactonization, the mevalonolactone was separated by thin layer chromatography. The eluate, which contained mevalonolactone, was collected in a scintillation vial. The radioactivity was then counted in a Packard 3320 scintillation spectrometer.

For the next test, the target named is T2, UDPGT1A1 (Homo sapiens, UniProt P22309).
T2 construct: purchased SigmaAldrich U7254
T2 sequence (P22309 26-533): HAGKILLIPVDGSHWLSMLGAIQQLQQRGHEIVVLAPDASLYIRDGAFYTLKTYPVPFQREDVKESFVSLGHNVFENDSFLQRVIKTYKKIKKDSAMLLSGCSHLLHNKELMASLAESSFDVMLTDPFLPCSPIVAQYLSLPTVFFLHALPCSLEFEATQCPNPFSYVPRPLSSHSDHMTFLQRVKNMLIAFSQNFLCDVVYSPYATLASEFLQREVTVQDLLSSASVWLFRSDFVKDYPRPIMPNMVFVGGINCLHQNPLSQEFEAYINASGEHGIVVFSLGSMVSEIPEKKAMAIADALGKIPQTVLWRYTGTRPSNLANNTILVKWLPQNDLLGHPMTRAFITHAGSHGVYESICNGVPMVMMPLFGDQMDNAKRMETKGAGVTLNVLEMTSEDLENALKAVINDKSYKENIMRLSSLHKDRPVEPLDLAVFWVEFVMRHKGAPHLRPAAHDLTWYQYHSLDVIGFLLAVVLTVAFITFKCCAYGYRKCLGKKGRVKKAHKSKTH
Kind of test: Inhibition of bilirubin glucuronidation by UDPGT. Format: biochemical. An excerpt: UDP-glucuronosyltransferase 1A1 isozenzyme (Cat. #U7254), uridine-5′-diphosphoglucuronic acid (UDPGA, #U5625), bilirubin (B), naringenin (N5893), octyl gallate (#48700) and quercetin (Q0125) were purchased from SigmaAldrich (St. Louis, Mo.). Bilirubin dimethyl ester (#B612-9), biliverdin dimethyl ester (#B610-9), biliverdin hydrocholoride (#B655-9), mesobilirubin (#M588-9), urobilin hydrochloride (#U590-1), and stercobilin hydrochloride (#S594-9) were purchased from Frontier Scientific Inc. (Logan, Utah).
The enzyme activity assay method was based on those of Adlard and Lathe (Biochem. J., 1970, 119:437-445). Incubation mixtures (total vol. 1.25 ml, pH 7.9) were prepared in tubes kept in ice and had the following composition: bilirubin (0.1 mM), UDP-glucuronic acid (0.25 mM), serum (5.8%, v/v), Mg2+ (5.0 mM), microsomal preparation (0.5-1.5 mg of protein), 10 mM tris-0.14 M KCl (pH 8.0), and 10% (v/v) dimethylsulphoxide. Incubation (10 min, 37° C.) was carried out with shaking (100 cycles/min). After incubation, tubes were placed in ice-water (5 min) and direct-reacting bilirubin was determined. All incubations were done in duplicate. Enzyme activity was expressed as μg of bilirubin conjugated/h per mg of protein. Differences from controls of more than 10% were regarded as significant.

The test system of a further test is cyclooxygenase (COX). Kind of test: Cyclooxygenase (COX) inhibition. Format: biochemical, human. As to conditions: concentration of 10 mg/L (FIG. 4). On the procedure: The activity of COX was determined by the procedure described in Assay Design's Enzyme Immunometric Assay (EIA) kit (Assay Design Inc., TiterZyme EIA cat.#900-094). Briefly, the kit uses a monoclonal antibody to human COX-II immobilized on a microtiter plate to bind the human COX in the standard or sample. After a short incubation the excess standard or sample is washed out and a rabbit polyclonal antibody to human COX labeled with the enzyme. Horseradish peroxidase is added. This labeled antibody binds to the human COX captured on the plate. After a short incubation the excess labeled antibody is washed out and substrate is added. The substrate reacts with the labeled antibody bound to the human COX captured on the plate. After a short incubation, the enzyme reaction is stopped and the color generated is read at 450 nm. The measured optical density is directly proportional to the concentration of human COX.
Purified cyclooxygenases (COX) were obtained from Kayman Chemical Company and used to examine the inhibitory effect of bilirubin with arachidonic acid as the substrate. High purity of bilirubin (SigmaAldrich #B4126), biliverdin (Frontier Scientific Inc., Cat. B655-9) and hemin (SigmaAldrich, #51280) were used as received.

Setting [1] is: Table 4, bilirubin 0.1 mM as substrate, read-out: Apparent Ki.
[2] abbreviates: read-out: inhibition constant (Ki).

Turning to `C=CC1=C(C)/C(=C/C2=NC(=C/c3[nH]c(/C=C4\NC(=O)C(C)=C4C=C)c(C)c3CCC(=O)O)/C(CCC(=O)O)=C2C)NC1=O` [biliverdin, 2,7,13,17-tetramethyl-1,19-dioxo-3,18-divinyl-1,19,22,24-tetrahydro-21H-biline-8,12-dipropanoic acid], at HMG-CoA reductase, the “inhibition of HMG-CoA reductase activity (comparison)” value is “strongly inhibit”. The Ki on UDPGT1A1 (setting [1]) was determined as 19.9 µM.

Regarding `C=CC1=C(C)C(=O)N/C1=C\c1[nH]c(Cc2[nH]c(/C=C3\NC(=O)C(C)=C3C=C)c(C)c2CCC(=O)O)c(CCC(=O)O)c1C` [Bilirubin XIIIα], the Ki at UDPGT1A1 (setting [1]) came out at 1.7 µM.

Turning to `CCCCCCCCOC(=O)c1cc(O)c(O)c(O)c1` [Octyl gallate ester], the Ki at UDPGT1A1 (setting [1]) amounted to 7.6 µM. For the compound `C=CC1=C(C)/C(=C/c2[nH]c(Cc3[nH]c(/C=C4\NC(=O)C(C=C)=C4C)c(C)c3CCC(=O)O)c(CCC(=O)O)c2C)NC1=O` [Bilirubin IIIα], the Ki at UDPGT1A1 (setting [1]) was determined as 1.5 µM. On to hemin, for which, in the test with cyclooxygenase (COX), the “reducing COX activity (comparison)” value is “effective in reducing COX activity”. As for `C=CC1=C(C)c2cc3[n-]c(cc4[n-]c(cc5nc(cc1n2)C(C)=C5C=C)c(C)c4CCC(=O)O)c(CCC(=O)O)c3C.O.[Fe+2]` [Hematin, reference compound], at HMG-CoA reductase, the “inhibition of HMG-CoA reductase activity (comparison)” value was “strongly inhibit”. Take `C=CC1=C(C)C(OC)N/C1=C\c1[nH]c(Cc2[nH]c(/C=C3\NC(OC)C(C=C)=C3C)c(C)c2CCC(=O)O)c(CCC(=O)O)c1C` (stereo not shown) [DimethoxybilirubinIXα]: the Ki at UDPGT1A1 (setting [1]) was 1.3 µM; on UDPGT1A1 (setting [2]), roughly 1 µM.

As for `CCC1=C(C)/C(=C/c2[nH]c(Cc3[nH]c(/C=C4\NC(=O)C(C)=C4CC)c(C)c3CCC(=O)O)c(CCC(=O)O)c2C)NC1=O` [Mesobilirubin IXα, 3,18-diethyl-2,7,13,17-tetramethyl-1,19-dioxo-1,19,22,24-tetrahydro-21H-biline-8,12-dipropanoic acid], the Ki on UDPGT1A1 (setting [1]) was 2.3 µM. On to “(±)-2,3-Dihydro-5,7-dihydroxy-2-(4-hydroxyphenyl)-4H-1-benzopyran-4-one; 4′,5,7-Trihydroxyflavanone [Naringenin]”, for which the results for the Ki on UDPGT1A1 (setting [1]) and on UDPGT1A1 (setting [2]) were 4.8 µM and 5 µM, respectively. This compound also gave an IC50 against UDPGT1A1 (under the testing conditions) of roughly 16 µM.
